Tests used:
Type in all cases: cell-based
[1] = target: T1, integrin α4β7 on α4β7+ memory T helper cells (Homo sapiens, UniProt P13612+P26010); assay: MAdCAM-1 competition / receptor occupancy assay in human whole blood, α4β7-positive Th memory cells; conditions: human whole blood; for IC50: inhibition of MAdCAM-1 binding to α4β7-positive Th memory cells, FACS, read-out: MADCAM FACS α4β7 Th mem
T1 construct: endogenous in cells
T1 sequence (P13612 34-1032): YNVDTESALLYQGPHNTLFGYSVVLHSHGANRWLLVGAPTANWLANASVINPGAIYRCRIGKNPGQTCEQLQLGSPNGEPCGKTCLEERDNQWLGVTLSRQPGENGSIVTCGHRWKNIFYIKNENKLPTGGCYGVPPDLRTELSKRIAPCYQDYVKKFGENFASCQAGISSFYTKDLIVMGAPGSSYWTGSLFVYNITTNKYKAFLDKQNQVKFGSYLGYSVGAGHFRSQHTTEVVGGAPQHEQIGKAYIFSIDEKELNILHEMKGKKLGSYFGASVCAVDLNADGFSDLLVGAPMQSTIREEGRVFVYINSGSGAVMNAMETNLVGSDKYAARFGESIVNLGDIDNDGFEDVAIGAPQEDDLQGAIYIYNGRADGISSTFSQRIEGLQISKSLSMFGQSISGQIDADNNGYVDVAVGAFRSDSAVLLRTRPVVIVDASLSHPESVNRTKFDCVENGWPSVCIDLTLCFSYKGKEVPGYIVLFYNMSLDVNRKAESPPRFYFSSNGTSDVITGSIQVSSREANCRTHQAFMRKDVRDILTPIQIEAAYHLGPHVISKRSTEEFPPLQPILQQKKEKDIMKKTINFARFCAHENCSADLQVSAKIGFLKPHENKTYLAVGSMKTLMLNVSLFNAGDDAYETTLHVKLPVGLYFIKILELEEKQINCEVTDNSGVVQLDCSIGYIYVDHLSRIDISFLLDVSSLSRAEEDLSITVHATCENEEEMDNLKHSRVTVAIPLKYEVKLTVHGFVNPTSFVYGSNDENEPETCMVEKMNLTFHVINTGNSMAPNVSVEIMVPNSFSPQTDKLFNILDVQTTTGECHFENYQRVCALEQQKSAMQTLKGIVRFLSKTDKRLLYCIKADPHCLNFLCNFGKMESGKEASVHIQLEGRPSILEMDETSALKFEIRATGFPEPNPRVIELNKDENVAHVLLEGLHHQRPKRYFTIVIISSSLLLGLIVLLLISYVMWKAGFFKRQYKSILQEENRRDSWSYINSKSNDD
T1 sequence (P26010 20-798): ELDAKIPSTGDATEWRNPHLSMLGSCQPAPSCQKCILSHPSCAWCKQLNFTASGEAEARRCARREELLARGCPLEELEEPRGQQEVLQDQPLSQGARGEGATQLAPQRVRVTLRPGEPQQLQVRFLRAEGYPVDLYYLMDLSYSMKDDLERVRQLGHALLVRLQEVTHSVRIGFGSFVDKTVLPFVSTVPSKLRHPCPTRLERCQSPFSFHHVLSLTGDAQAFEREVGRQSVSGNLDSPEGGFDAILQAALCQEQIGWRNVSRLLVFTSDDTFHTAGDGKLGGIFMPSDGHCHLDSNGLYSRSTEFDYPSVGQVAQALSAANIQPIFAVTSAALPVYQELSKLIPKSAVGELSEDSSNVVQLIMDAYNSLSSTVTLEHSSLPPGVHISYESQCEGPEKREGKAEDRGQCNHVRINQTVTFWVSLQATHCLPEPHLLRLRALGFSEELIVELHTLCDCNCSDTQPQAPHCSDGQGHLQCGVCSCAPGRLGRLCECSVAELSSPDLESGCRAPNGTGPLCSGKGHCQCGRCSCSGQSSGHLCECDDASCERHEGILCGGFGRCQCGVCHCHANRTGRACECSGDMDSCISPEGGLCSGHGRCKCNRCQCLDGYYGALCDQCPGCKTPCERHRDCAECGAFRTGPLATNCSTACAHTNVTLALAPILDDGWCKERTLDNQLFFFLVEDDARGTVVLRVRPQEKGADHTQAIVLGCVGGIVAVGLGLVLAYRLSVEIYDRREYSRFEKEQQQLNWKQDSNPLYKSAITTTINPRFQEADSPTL
Method: Analyte Competition Assay in CD4+ Integrin α4+β7-Lo Memory T Cells
Receptor occupancy in primary cells was determined by measuring the amount of biotinylated human recombinant MAdCAM-1-FC or human recombinant VCAM-1-Fc bound to selected cell populations using flow cytometry. Human recombinant MAdCAM-1-FC or human recombinant VCAM-1-FC (R&D systems) were biotinylated using commercially available reagents and protocol (Pierce).
Whole blood was collected from human donors in sodium heparin tubes. […] Cells were washed twice with 1 mL of 1X DPBS calcium magnesium free (CMF) (ThermoFisher Scientific) and resuspended in 100 microL of DPBS CMF.
Biotinylated human recombinant MAdCAM-1-Fc or VCAM-1-Fc were added at saturating concentration and incubated at room temperature for 1 hour. […] Cells were washed with 1 mL stain buffer-FBS (BD Biosciences) and resuspended in 100 μl stain Buffer-FBS (BD Biosciences) containing 4 mM MnCl2. […] Cells were then washed with 1 mL stain buffer-FBS and resuspended in […] stain buffer-FBS. The cells were incubated in the dark for 30 minutes at room temperature with 1 ul Streptavidin APC (Biolegend 0.2 mg/ml) and a panel of antibodies for the detection of memory T helper a4b7-positive cells subset. And amount of 5.0 ul each of the following antibodies were used; CD45 FITC (BioLegend 200 ug/ml), CD29 APC Cy7 (BioLegend 100 ug/ml), Integrin beta7 PE, (BioLegend concentration 50 μg/mL), CD49d V421 (BioLegend 50 μg/mL), CD3 V510 (BioLegend 30 μg/mL), CD4 PECy7 (BioLegend 100 μg/mL), CD45RO PerCP, BioLegend 200 μg/mL). The cells were then washed with stain-buffer-FBS and resuspended in 150 microL stain buffer-FBS for acquisition on the flow cytometer (BD FACSCanto™ flow cytometer and BDFACSDiva™ software). FACS data was acquire by electronic gating on the basis of forward versus side scatter, The cytometer was set to collect 20,000 events in each tube. Cell population were determined using the following markers, CD45+, CD3+, CD4+, CD45RO+, CD49d+, integrin b7, biotinylated ligands.
Compound receptor occupancy was defined as the decrease in the number of integrin β7+ or integrin β7-lo cells binding biotinylated rhMAdCAM-1 or rhVCAM-1, respectively.
Receptor occupancy was calculated with the following equation: 100−((% ligand-positive cells with compound/% ligand-positive cells DMSO)*100) In Vivo T Lymphocyte Trafficking Analysis in Mouse Model of Colitis

[2] = target: T2, integrin α4β7 (RPMI8866 human cells adhering to MAdCAM-1) (Homo sapiens, UniProt P13612+P26010); assay: Integrin α4β7-MAdCAM cell adhesion assay (RPMI8866 cells); conditions: RPMI8866 cells adhering to MAdCAM; read-out: RPMI8866 Adhesion α4β7/MAdCAM IC50
T2 construct: RMP18866 cells, which express integrin α4β7; host or cells: RPMI8866
T2 sequence (P13612 34-1032): T1 sequence (P13612 34-1032)
T2 sequence (P26010 20-798): T1 sequence (P26010 20-798)
Summary of the method: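 RPMI8866 cells were loaded with […] calcein in PBS for 30 min at 37° C. After plate washes with PBS, fluorescence of adherent cells was read, and no-cell control wells were subtracted from each test well to build the dose response.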

[3] = target: T3, integrin α4β1 (RAMOS human cells adhering to VCAM-1) (Homo sapiens, UniProt P05556+P13612); assay: Integrin α4β1-VCAM cell adhesion assay (RAMOS cells); conditions: for IC50: Ramos cells adhering to VCAM, read-out: Ramos Adhesion α4β1/VCAM IC50
T3 construct: Ramos cells, which express integrin α4β1; host or cells: RAMOS
Method: Integrin α4β1-VCAM Cell Adhesion Assay
The plate was incubated overnight at 4° C. and washed twice with 150 μl per well wash buffer (0.05% Tween 20 in PBS), blocked with 250 μl per well blocking buffer (1% non-fat dry milk in PBS), for 1 hour at room temperature. During blocking step, RAMOS cells were resuspended at 10 million cells/ml in PBS containing […] and incubated at 37° C. for 30 min in a 50 ml tube. […] The plate was emptied by inverting and blotting on paper towels and washed manually twice with PBS. […] To calculate the dose response, the fluorescence value of control wells not containing cells was subtracted from each test well.

T3 sequence (P05556 21-798, one chain of several): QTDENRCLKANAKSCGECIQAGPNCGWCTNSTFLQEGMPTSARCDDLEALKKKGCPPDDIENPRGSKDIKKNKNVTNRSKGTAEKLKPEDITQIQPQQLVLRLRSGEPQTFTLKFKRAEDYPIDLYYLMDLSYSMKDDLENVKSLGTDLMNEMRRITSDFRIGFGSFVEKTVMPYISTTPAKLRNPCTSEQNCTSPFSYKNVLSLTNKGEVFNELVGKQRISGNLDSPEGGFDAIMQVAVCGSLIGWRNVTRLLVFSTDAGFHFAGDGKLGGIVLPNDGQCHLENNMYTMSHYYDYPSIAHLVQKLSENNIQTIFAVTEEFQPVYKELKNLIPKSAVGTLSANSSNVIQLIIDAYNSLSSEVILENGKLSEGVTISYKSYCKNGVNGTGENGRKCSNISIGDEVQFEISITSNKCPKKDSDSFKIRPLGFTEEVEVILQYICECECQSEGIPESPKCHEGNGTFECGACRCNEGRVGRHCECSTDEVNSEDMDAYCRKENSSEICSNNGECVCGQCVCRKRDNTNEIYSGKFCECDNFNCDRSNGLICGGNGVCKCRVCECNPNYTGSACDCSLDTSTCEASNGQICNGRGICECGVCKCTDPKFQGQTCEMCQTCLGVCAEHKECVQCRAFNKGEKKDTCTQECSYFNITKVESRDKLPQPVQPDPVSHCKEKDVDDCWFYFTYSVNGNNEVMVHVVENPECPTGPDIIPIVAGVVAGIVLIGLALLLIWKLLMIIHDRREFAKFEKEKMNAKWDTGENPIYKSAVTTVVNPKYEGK

| SMILES | IC50 [1] [nM] | IC50 [2] [nM] | IC50 [3] [nM] | receptor occupancy at low concentrations ([1]; low concentrations) [%] | Ratio Ramos/RPMI ([3]; ratio of cell adhesion IC50s, Ramos α4β1/VCAM over RPMI8866 α4β7/MAdCAM) |
| --- | --- | --- | --- | --- | --- |
| CC(C)C[C@@H]1NC(=O)c2ccc(-c3ccc(N4CCN(C(=O)CCOCCOCCNC(=O)COCC(=O)NCCOCCOCCC(=O)N5CCN(c6ccc(-c7ccc8cc7CNC(=O)[C@@H]7CCCN7[C@H](C(=O)NC(C)(C)C)[C@H](C)NC(=O)[C@H]([C@@H](C)O)NC(=O)[C@H](CC(=O)O)NC(=O)[C@H](CC(C)C)NC8=O)cc6)CC5)CC4)cc3)c(c2)CNC(=O)[C@@H]2CCCN2[C@H](C(=O)NC(C)(C)C)[C@H](C)NC(=O)[C@H]([C@@H](C)O)NC(=O)[C@H](CC(=O)O)NC1=O [Compound 506] | – | – | 11000 | – | – |
| CC(C)C[C@@H]1NC(=O)c2ccc(-c3ccc(N4CCN(C(=O)c5ccnc(-c6cc(C(=O)N7CCN(c8ccc(-c9ccc%10cc9CNC(=O)[C@@H]9CCCN9[C@H](C(=O)NC(C)(C)C)[C@H](C)NC(=O)[C@H]([C@@H](C)O)NC(=O)[C@H](CC(=O)O)NC(=O)[C@H](CC(C)C)NC%10=O)cc8)CC7)ccn6)c5)CC4)cc3)c(c2)CNC(=O)[C@@H]2CCCN2[C@H](C(=O)NC(C)(C)C)[C@H](C)NC(=O)[C@H]([C@@H](C)O)NC(=O)[C@H](CC(=O)O)NC1=O [Compound 465] | 132 | – | – | – | – |
| CC(C)C[C@@H]1NC(=O)c2ccc(-c3ccc(N4CCN(C(=O)c5ccc6cc(C(=O)N7CCN(c8ccc(-c9ccc%10cc9CNC(=O)[C@@H]9CCCN9[C@H](C(=O)NC(C)(C)C)[C@H](C)NC(=O)[C@H]([C@@H](C)O)NC(=O)[C@H](CC(=O)O)NC(=O)[C@H](CC(C)C)NC%10=O)cc8)CC7)ccc6c5)CC4)cc3)c(c2)CNC(=O)[C@@H]2CCCN2[C@H](C(=O)NC(C)(C)C)[C@H](C)NC(=O)[C@H]([C@@H](C)O)NC(=O)[C@H](CC(=O)O)NC1=O [Compound 471] | 46 | 29 | – | – | – |
| CC(C)C[C@@H]1NC(=O)c2ccc(-c3ccc(N4CCNCC4)cc3)c(c2)CNC(=O)[C@@H]2CCCN2[C@H](C(=O)NC(C)(C)C)[C@H](C)NC(=O)[C@H]([C@@H](C)O)NC(=O)[C@H](CC(=O)O)NC1=O [Compound 340] | – | – | – | 50 | – |
| CC(C)C[C@@H]1NC(=O)c2ccc(-c3ccc(N4CCN(C(=O)c5cc6ccccc6c(Cc6c(O)c(C(=O)N7CCN(c8ccc(-c9ccc%10cc9CNC(=O)[C@@H]9CCCN9[C@H](C(=O)NC(C)(C)C)[C@H](C)NC(=O)[C@H]([C@@H](C)O)NC(=O)[C@H](CC(=O)O)NC(=O)[C@H](CC(C)C)NC%10=O)cc8)CC7)cc7ccccc67)c5O)CC4)cc3)c(c2)CNC(=O)[C@@H]2CCCN2[C@H](C(=O)NC(C)(C)C)[C@H](C)NC(=O)[C@H]([C@@H](C)O)NC(=O)[C@H](CC(=O)O)NC1=O [Compound 502] | – | 102 | 779 | – | 8 |

The next lines start with results.

| IC50 [1] [nM] | IC50 [2] [nM] | SMILES | IC50 [3] [nM] | receptor occupancy at low concentrations ([1]; low concentrations) [%] | Ratio Ramos/RPMI ([3]; ratio of cell adhesion IC50s, Ramos α4β1/VCAM over RPMI8866 α4β7/MAdCAM) |
| --- | --- | --- | --- | --- | --- |
| 64 | 25 | CC(C)C[C@@H]1NC(=O)c2ccc(-c3ccc(N4CCN(C(=O)c5ccccc5C(=O)N5CCN(c6ccc(-c7ccc8cc7CNC(=O)[C@@H]7CCCN7[C@H](C(=O)NC(C)(C)C)[C@H](C)NC(=O)[C@H]([C@@H](C)O)NC(=O)[C@H](CC(=O)O)NC(=O)[C@H](CC(C)C)NC8=O)cc6)CC5)CC4)cc3)c(c2)CNC(=O)[C@@H]2CCCN2[C@H](C(=O)NC(C)(C)C)[C@H](C)NC(=O)[C@H]([C@@H](C)O)NC(=O)[C@H](CC(=O)O)NC1=O [Compound 512] | – | – | – |
| 104 | 25 | CC(C)C[C@@H]1NC(=O)c2ccc(-c3ccc(N4CCN(C(=O)C[C@H](N)C(=O)N5CCN(c6ccc(-c7ccc8cc7CNC(=O)[C@@H]7CCCN7[C@H](C(=O)NC(C)(C)C)[C@H](C)NC(=O)[C@H]([C@@H](C)O)NC(=O)[C@H](CC(=O)O)NC(=O)[C@H](CC(C)C)NC8=O)cc6)CC5)CC4)cc3)c(c2)CNC(=O)[C@@H]2CCCN2[C@H](C(=O)NC(C)(C)C)[C@H](C)NC(=O)[C@H]([C@@H](C)O)NC(=O)[C@H](CC(=O)O)NC1=O [Compound 492] | – | – | – |
| 124 | 21 | CC(C)C[C@@H]1NC(=O)c2ccc(-c3ccc(N4CCN(C(=O)c5cc(C(=O)N6CCN(c7ccc(-c8ccc9cc8CNC(=O)[C@@H]8CCCN8[C@H](C(=O)NC(C)(C)C)[C@H](C)NC(=O)[C@H]([C@@H](C)O)NC(=O)[C@H](CC(=O)O)NC(=O)[C@H](CC(C)C)NC9=O)cc7)CC6)cc(C(F)(F)F)c5)CC4)cc3)c(c2)CNC(=O)[C@@H]2CCCN2[C@H](C(=O)NC(C)(C)C)[C@H](C)NC(=O)[C@H]([C@@H](C)O)NC(=O)[C@H](CC(=O)O)NC1=O [Compound 477] | – | – | – |
